Results taken from patent US20050084471A1, “Concentrated antimicrobial compositions and methods” (3M Innovative Properties Company, priority 2003, published 2005).

Key:
[1] = tested on: Staph. aureus, ATCC 25923; experiment: In vitro kill test of diluted formulations at 5° C., log reduction; assay type: cell-based, Staphylococcus aureus
[2] = tested on: E. coli 0157:H7 (ATCC# 700728); experiment: Dip treatment of inoculated beef adipose, log reduction; assay type: cell-based; details: formulations diluted to 1% w/w + 2% lactic acid; for Log Reduction, 60 min at 5° C. / Log Reduction, 24 hours at 5° C.: 5 min treatment
Method: Bacteria were grown in the same procedure described in Example 3. The bacteria strain was non-toxic E. coli 0157: H7 (ATCC# 700728).
After inoculation, the meat pieces were placed in a cooler at 5° C. for 30+/−5 minutes to allow attachment of the organisms.
A 11.4 cm^2 coring device was used to cut surface tissue excisions no thicker than 3 mm from the inoculated samples. The stainless steel coring device was disinfected prior to each run to prevent cross-contamination among the samples. Each circular tissue excision was placed in a filter stomacher bag with 15 ml of letheen diluent and stomached for 1 minuted prior to plating.
A 11.4 cm^2 coring device was used to cut surface tissue excisions no thicker than 3 mm from the inoculated samples. The stainless steel coring device was disinfected prior to each run to prevent cross-contamination among the meat samples.
The solution was shaken well until a milky emulsion formed. The emulsion solutions were used immediately after being made.
The circles were removed immediately and the excess solution was allowed to drip from the circle for 5 sec.
The circles were placed in stomacher bags. Two of them were placed into the refrigerator and the third was tested by adding 15 ml of Letheen diluent to the third stomacher bag. This bag was stomached for 1 minute prior to plating. Duplicate samples were plated from the undiluted sample in the stomacher bag. Serial ten-fold dilutions were made and plated on a [sequence] EB plate from each dilution. After incubation the plates were counted as recommended on the package insert. After 1 h refrigeration, one of the refrigerated stomacher bags was removed and the above steps repeated for the 1 h test circle. After 24 h refrigeration, the last of the stomacher bags was removed and the above steps repeated for the 24 h test circle.
Plates were read after incubation and log reductions determined as indicated in Example 3.

CC(O)C(=O)O (stereo not drawn) [2% Lactic Acid, Lactic Acid]
Log Reduction [1]: <2.72 log | Log Reduction, 60 min at 5° C. ([2]; solution at 5° C.): 1.37 log | Log Reduction, 24 hours at 5° C. ([2]; solution at 5° C.): 2.26 log | Log Reduction, 60 min at 5° C. ([2]; solution at 23° C.): 1.74 log | Log Reduction, 60 min at 5° C. ([2]; solution at 50° C.): 2.43 log | Log Reduction, 24 hours at 5° C. ([2]; solution at 50° C.): 2.54 log | Log Reduction, 5 min dip ([2]; solution at 5° C.): 0.51 log | Log Reduction, 5 min dip ([2]; solution at 23° C.): 0.87 log | Log Reduction, 5 min dip ([2]; solution at 50° C.): 1.72 log
